The results in this text go back to patent publication US20180161427A1, “COMBINATION OF AN ANTI-IL-10 ANTIBODY AND A CPG-C TYPE OLIGONUCLEOTIDE FOR TREATING CANCER” (MERCK SHARP & DOHME CORP., priority 2015, published 2018).

Strand notation (5' to 3'): a small letter for the sugar, then the base; units joined by * are phosphorothioate-linked, units joined directly phosphodiester-linked; [ ] holds rarer units or linkages, { } end groups; capitals alone tell only the bases. d = 2'-deoxy (DNA)

In series [1] the test system is TC-1 tumors. The experiment in a line: Anti-tumor activity in mouse TC-1 bilateral tumor model. It counts as in vivo. The settings on record: antibody 10 mg/kg IP. From the text:
Approximately seven to eight week old female C57BL/6J mice were obtained from Jackson Laboratory (Sacramento, Calif.). Conventional animal chow and water were provided ad libitum. Animals were housed for one week prior to the start of the study. The average weight of the animals at the start of the study (i.e. tumor implantation) was 19 grams.
The TC-1 cell line, provided by Johns Hopkins University (Baltimore, Md.) is derived from mouse primary lung epithelial cells that were cotransformed with human papilloma virus (HPV-16) E6 and E7 and c-Ha.ras oncogene (Lin K Y et al. Cancer Res. 1996 Jan. 1, 56(1):21-6). TC-1 cells are syngeneic to C57BL6/J strain.
The TC-1 cells were cultured in DMEM supplemented with 10% fetal bovine serum and 0.4 mg/mL Geneticin. Sub-confluent TC-1 cells were injected subcutaneously (SC) in 0.1 mL of serum-free DMEM in both lower dorsal flanks (1×10^5 in right flank and 0.5×10^5 in left flank) of each animal. Animals were first shaved with electronic clippers in the areas that were used for the implantation.
Tumors were measured the day before the first dose and twice a week thereafter. Tumor length and width were measured using electronic calipers and tumor volume determined using the formula Volume (mm^3)=0.5×Length×[…] where length is the longer dimension. Animals were weighed the day before the first dose and twice a week thereafter. […]

Series [2] relates to human tumor histocultures (renal cell carcinoma, NSCLC, bladder and colorectal cancer). The experiment in a line: Ex vivo treatment of human tumor histocultures, mRNA expression by real-time quantitative PCR. The class given is cell-based. The settings on record: 0.1, 0.5, and 1 μM, 24 hours; RCC (n=5), NSCLC (n=3), bladder (n=1), colorectal (n=1) histocultures. On the procedure:
Human tumor specimens from patients were obtained from commercial sources (Bio-Options, Folio, Coversant Bio, and Boston BioSource) and University of Rochester.
Fresh tumor tissues were collected within 1 hour following surgery and placed into AQIX transportation media (AQIX, UK). Tissues were transported overnight at 4° C. to Merck Research Laboratories, Palo Alto, Calif.
The tumors were embedded in UltraPure™ low melting point agarose (Invitrogen, Carlsbad, Calif.) and were cut 400 μm with Mcllwain™ Tissue Chopper (Stoelting Co., Wood Dale, Ill.). The tumor slices were first set on the Millicell-CM cell culture insert (Millipore, Billerica, Calif.) and cultured at the interface between air and medium of 1 ml DMEM supplemented with 4.5 g/L glucose, L-glutamine, sodium pyruvate (Mediatech, Inc., Manassas, Va.), 10% FBS (SAFC Biosciences, Lenexa, Kans.), 100 U/ml penicillin, and 100 ug/ml streptomycin in humidifed incubator at 37° C., 5% CO2.
The tumor slices were cultured in the presence of 0.1, 0.5, and 1 μM C59-08 or 1 μM control ODN 1040 for 24 hours. The tumor samples were snap frozen in dry ice and stored at […] prior to processing.
Total RNA was isolated by homogenization into RNA STAT-60 (Tel-Test, Friendswood, Tex.) using a polytron homogenizer. The total RNA was extracted according to the manufacturer's protocol. After precipitation with isopropanol, total RNA was re-extracted with phenol:chloroform:isoamyl alcohol (25:24:1) (Sigma-Aldrich, St. Louis, Mo.) using phase-lock light tubes.
DNase-treated total RNA was reverse-transcribed using QuantiTect Reverse Transcription (Qiagen, Valencia, Calif.) according to manufacturer's protocol. […] Real-time quantitative PCR on 10 ng of cDNA from each sample was performed using unlabeled primers at 900 nM each with 250 nM of FAM-labeled probe in a TAQMAN™ RTqPCR reaction on the Fluidigm Biomark sequence detection system (Fluidigm, Foster City, Calif.). Levels of ubiquitin were measured in a separate reaction and were used to normalize the data by the Δ-Δ Ct method. […]

Series [3] relates to Human peripheral blood mononuclear cells (PBMCs). The series is described as follows: Induction of IFNα2a and IL-10 in human PBMCs (48 hours, Meso Scale Discovery kits). It counts as cell-based. How it is done: Human peripheral blood mononuclear cells (PBMCs) were isolated from buffy coats from two donors with Ficoll-Paque™ PLUS (GE Healthcare Bio-Sciences, Pittsburgh, Pa.) using standard Ficoll separation methods. Isolated PBMCs were washed twice in phosphate buffered saline (PBS) containing 2% fetal bovine serum (FBS), and 2 mM ethylenediaminetetraacetic acid (EDTA). The cells were resuspended and cultured in 96-well U-bottom plates at 1×10^6 cells per well in RPMI 1640 containing 10% FBS, 2 mM L-glutamine, 100 U/mL pencillin and 100 μg/mL streptomycin. The cells were cultured in the presence of C59-08 at doses ranging from 0.016 μM to 5 μM or 7 μM control ODN 1040 in a humidifed incubator at 37° C., 5% CO2 in final volume of 0.2 mL for 48 hours. Supernatants were harvested and assayed for IFNα2a and IL-10 using Meso Scale Discovery human IFNα2a and human IL-10 tissue culture kits (Rockville, Md.).

Setting [4] is: 2 donors, 0.016 μM to 5 μM, supernatant.

For the substance “5′-TCGAACGTTCGAACGTTCGAACGTTCGAAT-3′ (DNA dT*dC*dG*dA*dA*dC*dG*dT*dT*dC*dG*dA*dA*dC*dG*dT*dT*dC*dG*dA*dA*dC*dG*dT*dT*dC*dG*dA*dA*dT) [Compound C59-08, oligodeoxynucleotide with a phosphorothioate backbone and 5′OH and 3′OH; CpG class C type TLR9 agonist]”, the “Complete regressions (CRs) of non-injected tumors” value in series [1] (left flank tumor, ODN IT only in right tumors on Days 0, 4, 8, 12) is given as “did not result in CRs”. Besides, the “Complete regressions (CRs) of injected tumors” value in series [1] (right flank tumor, ODN IT (C59-08 2.5 mg/kg, CpG 1826 1 mg/kg) on Days 0, 4, 8, 12) is given as “did not result in CRs”. Further, in series [2], the “mRNA expression of IFNα-inducible genes (IFNα2, MCP1, MCP2, OAS2, IP-10, GBP1, ISG-54, MxB, and TRAIL)” value is recorded as “induced”; the “mRNA expression of cytokines (IFNβ, IL-10, IL-12, IL-6, and TNFα)” value is listed as “induced”; the “mRNA expression of immune activation markers (CD80, CD86, CD40, CD70 and OX40L)” value is given as “induced”. Further, the “optimal concentration for IFNα2a and IL-10 production” value in series [3] was 0.2 µM. Also, in series [3] (setting [4]), the IFNα2a production result is on record as “induces” and the IL-10 production entry is “induces”.
